Test results: patent US8168651B2, “Protein kinase modulators” (Cylene Pharmaceuticals, Inc., priority 2008, dated 2012)
Like-named read-outs stand apart in the source and are kept apart here.

What was measured:
K-562 [1] = test: Cell proliferation modulatory activity, K-562; type: cell-based; conditions: Homo sapiens, K562
Flt3 = Flt3 (Homo sapiens (Human), UniProt P36888); test: FLT-3 kinase activity in cell free in vitro assay; type: biochemical; conditions: cell-free; read-out: FLT-3
MV-4-11 [2] = test: Cell proliferation modulatory activity, MV-4-11; type: cell-based; conditions: Homo sapiens, MV4-11
[3] = test system: HCT-116 human colorectal carcinoma cells; test: Cell-proliferation assay using Alamar Blue dye; type: cell-based; conditions: Homo sapiens, HCT-116, HCT-116, second column; read-out: HCT-116 (uM), cell proliferation modulatory activity;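 also: cells exposed to compound for about 4 days, then Alamar Blue added and dye fluorescence read after about 4 h, compared with medium-only control wells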
recombinant human CK2 = recombinant human CK2 (Homo sapiens (Human), UniProt P68400); test: CK2 assay (cell-free, 33P-ATP filter plate); type: biochemical; conditions: cell-free
recombinant human PIM1 = recombinant human PIM1 (Homo sapiens (Human), UniProt P11309); test: PIM-1 kinase activity in cell-free in vitro assay; type: biochemical
[4] = test system: MiaPaca human pancreatic carcinoma cells; test: Cell-proliferation assay using Alamar Blue dye; type: cell-based; conditions: MIA PaCa-2, Table 45
Experimental: A representative cell-proliferation assay protocol using Alamar Blue dye (stored at 4° C., use 20 ul per well) is described hereafter.
• a. Split and trypsinize cells. • b. Count cells using hemocytometer. • c. Plate 4,000-5,000 cells per well in 100 μl of medium and seed into a 96-well plate according to the following plate layout. Add cell culture medium only to wells B10 to B12. Wells B1 to B9 have cells but no compound added.
• d. Add 100 μl of 2× drug dilution to each well in a concentration shown in the plate layout above. At the same time, add 100 μl of media into the control wells (wells B10 to B12). Total volume is 200 μl/well. • e. Incubate four (4) days at 37° C., 5% CO2 in a humidified incubator. • f. Add 20 μl Alamar Blue reagent to each well. • g. Incubate for four (4) hours at 37° C., 5% CO2 in a humidified incubator. • h. Record fluorescence at an excitation wavelength of 544 nm and emission wavelength of 590 nm using a microplate reader.
In the assays, cells are cultured with a test compound for approximately four days, the dye then is added to the cells and fluorescence of […] dye is detected after approximately four hours. Different types of cells can be utilized in the assays (e.g., HCT-116 human colorectal carcinoma cells, PC-3 human prostatic cancer cells and MiaPaca human pancreatic carcinoma cells). Anti-proliferative effects of representative compounds are provided hereafter

MV-4-11 [5] = test: Cell proliferation modulatory activity, MV-4-11; type: cell-based; conditions: Homo sapiens, MV4-11; Table 45; read-out: MV-4-11 IC50
K-562 [6] = test: Cell proliferation modulatory activity, K-562; type: cell-based; conditions: Homo sapiens, K562; Table 45; read-out: K-562 IC50
PIM2 = PIM2 (Homo sapiens (Human), UniProt Q9P1W9); test: PIM2 IC50; type: biochemical; conditions: Table 45
phosphoBAD ser 112 = phosphoBAD ser 112 IC50; type: cell-based; conditions: read-out: phosphoBAD ser 112 IC50; Table 45
MDAMB231 = MDAMB231 IC50; type: cell-based; conditions: Homo sapiens, MDA-MB-231; Table 45

PIM2, sequence (Q9P1W9 whole entry): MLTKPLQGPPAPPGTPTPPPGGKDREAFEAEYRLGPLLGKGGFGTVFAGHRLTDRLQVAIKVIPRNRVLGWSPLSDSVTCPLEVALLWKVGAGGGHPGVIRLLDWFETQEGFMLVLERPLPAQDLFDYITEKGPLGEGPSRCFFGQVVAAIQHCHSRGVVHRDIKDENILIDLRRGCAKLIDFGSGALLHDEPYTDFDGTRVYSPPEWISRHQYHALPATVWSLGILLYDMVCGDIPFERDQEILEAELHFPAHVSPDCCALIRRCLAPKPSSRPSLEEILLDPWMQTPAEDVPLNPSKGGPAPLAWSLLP
recombinant human PIM1, sequence (P11309 whole entry): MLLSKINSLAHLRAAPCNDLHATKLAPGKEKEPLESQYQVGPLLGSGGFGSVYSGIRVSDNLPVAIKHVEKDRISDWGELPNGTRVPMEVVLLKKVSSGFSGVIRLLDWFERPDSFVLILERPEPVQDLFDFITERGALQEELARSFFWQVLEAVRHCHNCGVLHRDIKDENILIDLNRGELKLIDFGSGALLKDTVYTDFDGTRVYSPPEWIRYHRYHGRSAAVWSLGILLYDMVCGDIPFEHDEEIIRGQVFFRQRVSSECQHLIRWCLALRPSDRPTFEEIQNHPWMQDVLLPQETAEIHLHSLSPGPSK
recombinant human CK2, sequence (P68400 whole entry): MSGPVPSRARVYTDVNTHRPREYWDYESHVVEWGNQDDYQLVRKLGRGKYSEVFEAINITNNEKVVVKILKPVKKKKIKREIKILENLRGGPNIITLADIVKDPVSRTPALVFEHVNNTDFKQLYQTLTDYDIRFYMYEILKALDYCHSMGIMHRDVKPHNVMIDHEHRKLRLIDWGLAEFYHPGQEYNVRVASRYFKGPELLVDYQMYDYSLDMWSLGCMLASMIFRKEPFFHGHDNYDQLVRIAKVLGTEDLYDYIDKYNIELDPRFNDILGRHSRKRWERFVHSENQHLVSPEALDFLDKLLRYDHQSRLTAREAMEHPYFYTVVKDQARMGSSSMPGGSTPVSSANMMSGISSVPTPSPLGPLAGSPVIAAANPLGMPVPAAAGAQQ
recombinant human CK2, sequence (P67870 whole entry partner): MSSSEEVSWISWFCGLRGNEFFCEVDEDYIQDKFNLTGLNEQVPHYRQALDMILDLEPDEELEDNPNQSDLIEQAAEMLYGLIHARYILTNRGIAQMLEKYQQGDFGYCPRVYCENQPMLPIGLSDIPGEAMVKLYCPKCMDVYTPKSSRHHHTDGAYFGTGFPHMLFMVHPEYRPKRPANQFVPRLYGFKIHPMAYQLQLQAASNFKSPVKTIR
Flt3, sequence (P36888 27-993): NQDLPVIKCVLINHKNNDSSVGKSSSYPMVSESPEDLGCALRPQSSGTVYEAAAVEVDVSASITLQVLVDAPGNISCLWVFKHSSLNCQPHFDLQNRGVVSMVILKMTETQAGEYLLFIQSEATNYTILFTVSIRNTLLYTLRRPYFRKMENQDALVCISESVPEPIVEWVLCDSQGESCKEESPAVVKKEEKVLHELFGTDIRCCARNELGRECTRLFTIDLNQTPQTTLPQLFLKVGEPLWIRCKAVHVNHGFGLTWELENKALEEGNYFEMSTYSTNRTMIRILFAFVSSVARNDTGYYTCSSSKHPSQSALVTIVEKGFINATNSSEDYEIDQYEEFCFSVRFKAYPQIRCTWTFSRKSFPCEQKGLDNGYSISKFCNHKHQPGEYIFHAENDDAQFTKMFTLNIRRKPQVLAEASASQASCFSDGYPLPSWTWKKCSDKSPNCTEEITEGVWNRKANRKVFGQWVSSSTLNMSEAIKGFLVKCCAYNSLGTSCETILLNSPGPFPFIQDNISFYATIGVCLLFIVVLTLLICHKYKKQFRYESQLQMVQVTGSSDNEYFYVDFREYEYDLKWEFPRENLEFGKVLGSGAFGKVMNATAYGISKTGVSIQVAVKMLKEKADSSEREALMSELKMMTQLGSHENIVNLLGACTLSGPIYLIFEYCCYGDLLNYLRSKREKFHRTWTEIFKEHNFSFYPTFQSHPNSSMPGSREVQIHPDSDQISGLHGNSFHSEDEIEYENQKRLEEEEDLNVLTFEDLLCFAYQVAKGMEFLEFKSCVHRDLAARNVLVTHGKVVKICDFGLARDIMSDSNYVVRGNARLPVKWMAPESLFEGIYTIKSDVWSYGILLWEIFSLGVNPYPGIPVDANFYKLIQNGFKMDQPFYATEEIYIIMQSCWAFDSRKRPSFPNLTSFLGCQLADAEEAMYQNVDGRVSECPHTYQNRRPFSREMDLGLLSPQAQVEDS

| SMILES | IC50 (K-562 [1]) [µM] | IC50 (Flt3) [nM] | IC50 (MV-4-11 [2]) [µM] | IC50 [3] [µM] | IC50 (recombinant human CK2; 15 um ATP, read-out: CK2 (15 um ATP) IC50) [nM] | IC50 (recombinant human CK2; 20 um ATP, read-out: CK2 (20 um ATP) IC50) [nM] | inhibition at 0.5 µM (recombinant human PIM1; 500 nM compound, cell-free, read-out: PIM-1: % inh 500 nM) [%] | IC50 (recombinant human PIM1; cell-free) [nM] | IC50 [4] [nM] | IC50 (MV-4-11 [5]) [nM] | IC50 (K-562 [6]) [µM] | IC50 (PIM2) [nM] | IC50 (phosphoBAD ser 112) [nM] | IC50 (recombinant human PIM1; Table 45) [nM] | IC50 (MDAMB231) [µM] |
| --- | --- | --- | --- | --- | --- | --- | --- | --- | --- | --- | --- | --- | --- | --- | --- |
| FC(F)(F)c1cccc(Nc2nc3cc(-c4nnn[nH]4)ccc3c3sccc23)c1 | > 10 | > 400 | 0.093 | > 10 | 458 | 406 | 59 | 205 | – | – | – | – | – | – | – |
| Fc1ccc(Nc2nc3c(-c4nnc[nH]4)cccc3c3cnccc23)c(Cl)c1 | – | – | – | – | – | – | – | – | > 10000 | < 500 | < 0.5 | < 100 | < 500 | < 100 | – |
| Cc1cc(F)ccc1Nc1nc2c(-c3nnc[nH]3)cccc2c2cnccc12 | – | – | – | – | – | – | – | – | < 5000 | < 100 | < 0.5 | < 100 | < 100 | < 100 | > 10 |
| Fc1ccc(Cl)cc1Nc1nc2c(-c3nnc[nH]3)cccc2c2cnccc12 | – | – | – | – | – | – | – | – | < 1000 | < 100 | < 5 | < 100 | < 1000 | < 100 | < 1 |
| COc1ccc(Nc2nc3c(-c4nc[nH]n4)cccc3c3cnccc23)cc1 | – | – | – | – | – | – | – | – | < 500 | < 100 | < 0.5 | < 100 | < 100 | < 100 | – |
| Fc1ccc(Nc2nc3c(-c4nc[nH]n4)cccc3c3cnccc23)c(F)c1 | – | – | – | – | – | – | – | – | < 5000 | < 100 | < 5 | < 100 | < 100 | < 100 | < 5 |
| Cc1ccccc1Nc1nc2c(-c3nnc[nH]3)cccc2c2cnccc12 | – | – | – | – | – | – | – | – | < 1000 | – | < 1 | – | – | – | > 10 |
| Fc1cccc(F)c1Nc1nc2c(-c3nnc[nH]3)cccc2c2cnccc12 | – | – | – | – | – | – | – | – | < 1000 | < 100 | < 0.5 | < 100 | < 100 | < 100 | < 5 |
| Fc1ccccc1Nc1nc2c(-c3nnc[nH]3)cccc2c2cnccc12 | – | – | – | – | – | – | – | – | < 1000 | < 100 | < 0.5 | < 100 | < 5000 | < 100 | – |
| c1ccc(Nc2nc3c(-c4nnc[nH]4)cccc3c3cnccc23)cc1 | – | – | – | – | – | – | – | – | < 1000 | < 100 | < 5 | < 1000 | < 100 | < 100 | > 10 |
| CCOc1ccc(Nc2nc3c(-c4nnc[nH]4)cccc3c3cnccc23)cc1 | – | – | – | – | – | – | – | – | < 1000 | < 100 | < 5 | < 500 | < 100 | < 100 | > 10 |
| Fc1ccc(Nc2nc3c(-c4nnc[nH]4)cccc3c3cnccc23)cc1 | – | – | – | – | – | – | – | – | < 5000 | < 500 | > 10 | < 500 | < 500 | < 100 | < 5 |
| Cc1ccc(F)cc1Nc1nc2c(-c3nnc[nH]3)cccc2c2cnccc12 | – | – | – | – | – | – | – | – | – | – | > 10 | < 100 | – | – | > 10 |
| c1cc(-c2nc[nH]n2)c2nc(NC3CC3)c3ccncc3c2c1 | – | – | – | – | – | – | – | – | < 1000 | < 100 | < 0.1 | < 100 | < 100 | < 100 | < 1 |
| C#Cc1cccc(Nc2nc3c(-c4nnc[nH]4)cccc3c3cnccc23)c1 | – | – | – | – | – | – | – | – | < 500 | < 100 | < 5 | < 100 | < 100 | < 100 | < 0.5 |
| Clc1cccc(Nc2nc3c(-c4nnc[nH]4)cccc3c3cnccc23)c1 | – | – | – | – | – | – | – | – | < 1000 | < 500 | < 1 | < 100 | < 1000 | < 100 | < 5 |
| Clc1ccc(Nc2nc3c(-c4nc[nH]n4)cccc3c3cnccc23)cc1 | – | – | – | – | – | – | – | – | > 10000 | < 500 | < 0.5 | < 500 | < 5000 | < 100 | > 10 |
| COc1cccc(Nc2nc3c(-c4nnc[nH]4)cccc3c3cnccc23)c1 | – | – | – | – | – | – | – | – | < 1000 | < 500 | < 5 | < 1000 | < 100 | < 100 | < 1 |

| SMILES | IC50 (K-562 [1]) [µM] | IC50 (Flt3) [nM] | IC50 (MV-4-11 [2]) [µM] | IC50 [3] [µM] | IC50 (recombinant human CK2; 15 um ATP, read-out: CK2 (15 um ATP) IC50) [nM] | IC50 (recombinant human CK2; 20 um ATP, read-out: CK2 (20 um ATP) IC50) [nM] | inhibition at 0.5 µM (recombinant human PIM1; 500 nM compound, cell-free, read-out: PIM-1: % inh 500 nM) [%] | IC50 (recombinant human PIM1; cell-free) [nM] | IC50 [4] [nM] | IC50 (MV-4-11 [5]) [nM] | IC50 (K-562 [6]) [µM] | IC50 (PIM2) [nM] | IC50 (phosphoBAD ser 112) [nM] | IC50 (recombinant human PIM1; Table 45) [nM] | IC50 (MDAMB231) [µM] |
| --- | --- | --- | --- | --- | --- | --- | --- | --- | --- | --- | --- | --- | --- | --- | --- |
| COc1ccccc1Nc1nc2c(-c3nnc[nH]3)cccc2c2cnccc12 | – | – | – | – | – | – | – | – | – | < 100 | < 5 | < 1000 | < 100 | < 100 | < 5 |
| COc1cccc(CNc2nc3c(-c4nc[nH]n4)cccc3c3cnccc23)c1 | – | – | – | – | – | – | – | – | > 10000 | < 500 | < 0.5 | < 500 | < 5000 | < 100 | > 10 |
| Cc1cc(Nc2nc3c(-c4nnc[nH]4)cccc3c3cnccc23)ccc1F | – | – | – | – | – | – | – | – | < 500 | < 100 | > 10 | < 500 | < 5000 | < 100 | > 10 |
| Fc1ccc(Nc2nc3c(-c4nc[nH]n4)cccc3c3cnccc23)cc1F | – | – | – | – | – | – | – | – | < 5000 | < 100 | > 10 | < 500 | < 5000 | < 100 | < 1 |
| Fc1ccc(Nc2nc3c(-c4nnc[nH]4)cccc3c3cnccc23)cc1Cl | – | – | – | – | – | – | – | – | < 5000 | < 100 | < 5 | < 500 | < 1000 | < 100 | < 5 |
| Clc1cccc(Nc2nc3c(-c4nc[nH]n4)cccc3c3ccncc23)c1 | – | – | – | – | – | – | – | – | > 10000 | > 10000 | > 10 | < 500 | – | < 100 | > 10 |
| N#Cc1cccc(Nc2nc3c(-c4nc[nH]n4)cccc3c3cnccc23)c1 | – | – | – | – | – | – | – | – | > 10000 | < 100 | > 10 | > 1100 | < 5000 | < 100 | – |
| CN(c1ccccc1Cl)c1nc2c(-c3nnc[nH]3)cccc2c2cnccc12 | – | – | – | – | – | – | – | – | – | < 100 | < 5 | < 1000 | < 5000 | < 100 | > 10 |
| c1cc(-c2nc[nH]n2)c2nc(NCC3CC3)c3ccncc3c2c1 | – | – | – | – | – | – | – | – | < 10000 | < 100 | > 10 | < 500 | < 100 | < 100 | – |
| Fc1cccc(Nc2nc3c(-c4nnc[nH]4)cccc3c3cnccc23)c1 | – | – | – | – | – | – | – | – | < 1000 | < 500 | – | – | < 500 | < 100 | – |
| CN(c1ccc(Cl)cc1)c1nc2c(-c3nc[nH]n3)cccc2c2cnccc12 | – | – | – | – | – | – | – | – | < 5000 | < 1000 | < 0.5 | < 5000 | – | < 100 | > 10 |
| FC(F)(F)c1cccc(Nc2nc3c(-c4nnc[nH]4)cccc3c3cnccc23)c1 | – | – | – | – | – | – | – | – | < 5000 | < 500 | < 5 | > 1100 | < 1000 | < 500 | – |
| NC(=O)c1cccc2c1nc(Nc1cccc(F)c1)c1ccncc12 | – | – | – | – | – | – | – | – | < 1000 | < 120 | < 1 | – | < 100 | < 500 | < 1 |
| NC(=O)c1cccc2c1nc(Nc1cccc(Cl)c1)c1cnccc12 | – | – | – | – | – | – | – | – | > 10000 | > 10000 | > 10 | – | – | < 500 | > 10 |
| COCCOc1cccc(Nc2nc3c(-c4nnc[nH]4)cccc3c3cnccc23)c1 | – | – | – | – | – | – | – | – | > 10000 | < 100 | > 10 | – | < 100 | < 500 | > 10 |
| Clc1ccccc1Nc1nc2c(-c3nnc[nH]3)cccc2c2cnccc12 [drawing 2209] | – | – | – | – | – | – | – | – | < 500 | – | < 5 | < 100 | – | – | < 0.5 |
| NC(=O)c1cccc2c1nc(Nc1cccc(Cl)c1)c1ccncc12 [drawing 2246] | – | – | – | – | – | – | – | – | < 1000 | < 100 | < 0.5 | – | < 5000 | < 100 | < 10 |
